Source: BindingDB's records for doi:10.1038/350610a0 (University of Toronto, 1991)
Where “and” joins values, the source holds several entries; their conditions need not be identical. Identical values can stand only once.

These compounds were tested against T1, D(4) dopamine receptor (Rattus norvegicus, UniProt P30729).
T1 sequence (P30729 whole entry): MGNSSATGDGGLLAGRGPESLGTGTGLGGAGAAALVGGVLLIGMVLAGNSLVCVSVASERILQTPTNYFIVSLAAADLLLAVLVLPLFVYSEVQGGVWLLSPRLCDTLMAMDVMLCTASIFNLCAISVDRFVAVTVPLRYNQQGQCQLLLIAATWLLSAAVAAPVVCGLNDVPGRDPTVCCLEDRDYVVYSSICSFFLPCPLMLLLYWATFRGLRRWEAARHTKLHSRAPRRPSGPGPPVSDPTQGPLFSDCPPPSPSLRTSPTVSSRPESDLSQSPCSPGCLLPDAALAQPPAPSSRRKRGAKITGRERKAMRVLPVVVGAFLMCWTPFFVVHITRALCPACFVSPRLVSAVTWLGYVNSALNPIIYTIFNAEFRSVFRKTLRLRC

| SMILES | Ki [nM] |
| --- | --- |
| CN1CCN(CCCN2c3ccccc3Sc3ccc(S(=O)(=O)N(C)C)cc32)CC1 [NSC_92178] | 53 |
| O=c1[nH]c2ccccc2n1C1CCN(CCCC(c2ccc(F)cc2)c2ccc(F)cc2)CC1 [1-(1-(4,4-bis(4-fluorophenyl)butyl)piperidin-4-yl)-1H-benzo[d]imidazol-2(3H)-one] | 43 |
| CCN1CCC[C@H]1CNC(=O)c1c(O)c(Cl)cc(Cl)c1OC [3,5-Dichloro-N-(1-ethyl-pyrrolidin-2-ylmethyl)-2-hydroxy-6-methoxy-benzamide (raclopride)] | 237 |
| CC(C)C[C@H]1C(=O)N2CCC[C@H]2[C@]2(O)O[C@](NC(=O)[C@@H]3C=C4c5cccc6[nH]c(Br)c(c56)C[C@H]4N(C)C3)(C(C)C)C(=O)N12 [Bromocriptine+ (GTP+)] | 340 |
| Nc1nc2c(ncn2[C@@H]2O[C@H](COP(=O)(O)OP(=O)(O)OP(=O)(O)O)[C@@H](O)[C@H]2O)c(=O)[nH]1 [Dopamine+ (GTP+)] | 450 |

These compounds were tested against T2, Dopamine receptor D4 (Canis lupus familiaris, UniProt Q589Y6).
T2 sequence (Q589Y6 whole entry): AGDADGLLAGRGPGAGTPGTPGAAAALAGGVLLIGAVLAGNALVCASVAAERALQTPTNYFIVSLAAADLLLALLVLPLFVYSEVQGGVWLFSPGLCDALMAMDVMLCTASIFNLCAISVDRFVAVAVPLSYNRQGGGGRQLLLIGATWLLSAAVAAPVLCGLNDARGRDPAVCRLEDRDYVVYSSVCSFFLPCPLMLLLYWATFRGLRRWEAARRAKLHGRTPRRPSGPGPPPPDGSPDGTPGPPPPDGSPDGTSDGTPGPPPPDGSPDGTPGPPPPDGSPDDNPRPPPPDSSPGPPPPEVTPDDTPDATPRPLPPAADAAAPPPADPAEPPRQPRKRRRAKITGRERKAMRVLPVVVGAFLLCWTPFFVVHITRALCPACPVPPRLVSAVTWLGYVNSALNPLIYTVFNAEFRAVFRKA

| SMILES | Ki |
| --- | --- |
| NCCc1ccc(O)c(O)c1 | 7.5 nM and 28 nM |
| CN1CCN(CCCN2c3ccccc3Sc3ccc(C(F)(F)F)cc32)CC1 | 1.2 nM and 3 nM |
| CN1CCN(C2=c3ccccc3=Nc3ccc(Cl)cc3N2)CC1 [6-chloro-10-(4-methylpiperazin-1-yl)-2,9-diazatricyclo[9.4.0.0^{3,8}]pentadeca-1,3(8),4,6,10,12,14-heptaene] | 9 nM |
| CN1CCc2cccc3c2[C@H]1Cc1ccc(O)c(O)c1-3 [APOKYN] | 2 nM and 4.1 nM |
| CCCN1CCC[C@@H]2Cc3n[nH]cc3C[C@H]21 [NSC_54562] | 4.8 nM and 46 nM |
| NCC(O)c1ccc(O)c(O)c1 (stereo not drawn) [Noradrenaline,(+)] | 6000 nM and 1760 nM |
| O=C(c1ccc(F)cc1)C1CCN(CCn2c(=O)[nH]c3ccccc3c2=O)CC1 [3-(2-{4-[(4-fluorophenyl)carbonyl]piperidin-1-yl}ethyl)-1,2,3,4-tetrahydroquinazoline-2,4-dione] | 192 nM and 148 nM |
| NCCc1c[nH]c2ccc(O)cc12 [[3H]-5-HT] | 4180 nM |

What follows are compounds tested against D(2) dopamine receptor (Homo sapiens, UniProt P14416).
Sequence of D(2) dopamine receptor (P14416 whole entry): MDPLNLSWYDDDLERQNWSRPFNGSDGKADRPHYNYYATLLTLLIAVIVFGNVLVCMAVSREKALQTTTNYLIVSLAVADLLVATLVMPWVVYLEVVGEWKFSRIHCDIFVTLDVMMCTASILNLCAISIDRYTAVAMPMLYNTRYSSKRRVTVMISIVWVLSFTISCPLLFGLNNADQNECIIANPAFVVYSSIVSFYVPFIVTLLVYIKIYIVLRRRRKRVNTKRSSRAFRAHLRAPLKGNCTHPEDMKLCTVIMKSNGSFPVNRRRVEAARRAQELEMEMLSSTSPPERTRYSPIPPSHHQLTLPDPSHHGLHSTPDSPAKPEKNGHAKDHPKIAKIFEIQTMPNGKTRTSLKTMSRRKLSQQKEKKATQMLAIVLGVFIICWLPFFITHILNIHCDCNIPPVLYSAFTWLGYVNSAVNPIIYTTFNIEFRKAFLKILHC

| SMILES | Ki [nM] |
| --- | --- |
| CC(C)C[C@H]1C(=O)N2CCC[C@H]2[C@]2(O)O[C@](NC(=O)[C@@H]3C=C4c5cccc6[nH]c(Br)c(c56)C[C@H]4N(C)C3)(C(C)C)C(=O)N12 [Bromocriptine+ (GTP+)] | 12.6 |
